Columns and labels:
[1] = target: T1, 5-hydroxytryptamine receptor 1A (Homo sapiens, UniProt P08908); test: Binding affinity for human cloned 5-hydroxytryptamine 1A receptor
T1 sequence (P08908 whole entry): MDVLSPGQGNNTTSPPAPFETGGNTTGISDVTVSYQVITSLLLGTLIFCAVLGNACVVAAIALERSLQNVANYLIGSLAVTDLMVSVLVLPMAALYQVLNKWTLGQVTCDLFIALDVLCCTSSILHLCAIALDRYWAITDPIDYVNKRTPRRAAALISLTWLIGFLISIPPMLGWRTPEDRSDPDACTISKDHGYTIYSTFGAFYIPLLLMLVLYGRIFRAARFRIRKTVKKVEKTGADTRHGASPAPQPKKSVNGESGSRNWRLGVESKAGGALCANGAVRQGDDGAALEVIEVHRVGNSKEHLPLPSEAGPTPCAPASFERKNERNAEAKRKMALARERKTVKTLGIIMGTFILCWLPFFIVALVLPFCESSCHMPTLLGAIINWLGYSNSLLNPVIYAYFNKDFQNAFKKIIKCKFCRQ

[2] = target: 5-hydroxytryptamine receptor 1D (Homo sapiens, UniProt P28221); test: Binding affinity for human cloned 5-hydroxytryptamine 1D receptor
Sequence of 5-hydroxytryptamine receptor 1D (P28221 whole entry): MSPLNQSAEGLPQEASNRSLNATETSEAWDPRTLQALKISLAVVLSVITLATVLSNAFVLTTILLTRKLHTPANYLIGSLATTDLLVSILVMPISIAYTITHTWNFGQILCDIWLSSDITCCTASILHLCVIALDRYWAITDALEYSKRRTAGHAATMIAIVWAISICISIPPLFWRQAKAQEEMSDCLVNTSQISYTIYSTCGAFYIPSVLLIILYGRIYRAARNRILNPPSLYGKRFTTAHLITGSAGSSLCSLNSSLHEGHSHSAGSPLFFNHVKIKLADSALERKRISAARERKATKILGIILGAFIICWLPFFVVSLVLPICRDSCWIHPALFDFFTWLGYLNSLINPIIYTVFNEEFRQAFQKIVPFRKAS

[3] = target: T2, 5-hydroxytryptamine receptor 2C (Homo sapiens, UniProt P28335); test: Binding affinity for human cloned 5-hydroxytryptamine 2C receptor expressed in CHO cells using [3H]mesulergine as radioligand; assay type: cell-based
T2 sequence (P28335 whole entry): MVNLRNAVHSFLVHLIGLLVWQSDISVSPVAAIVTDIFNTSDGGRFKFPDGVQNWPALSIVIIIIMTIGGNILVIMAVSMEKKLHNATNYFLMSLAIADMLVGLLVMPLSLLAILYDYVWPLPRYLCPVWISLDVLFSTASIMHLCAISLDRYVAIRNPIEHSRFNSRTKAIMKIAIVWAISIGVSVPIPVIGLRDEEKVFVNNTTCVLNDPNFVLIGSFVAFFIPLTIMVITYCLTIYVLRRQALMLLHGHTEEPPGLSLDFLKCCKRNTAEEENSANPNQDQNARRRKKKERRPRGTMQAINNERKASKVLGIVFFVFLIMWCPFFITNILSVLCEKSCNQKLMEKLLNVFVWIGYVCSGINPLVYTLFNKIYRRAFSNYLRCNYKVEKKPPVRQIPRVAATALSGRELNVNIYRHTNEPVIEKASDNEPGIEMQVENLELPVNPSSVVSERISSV

[4] = target: 5-hydroxytryptamine receptor 2A (Homo sapiens, UniProt P28223); test: biochemical; assay type: cell-based, L929
Sequence of 5-hydroxytryptamine receptor 2A (P28223 whole entry): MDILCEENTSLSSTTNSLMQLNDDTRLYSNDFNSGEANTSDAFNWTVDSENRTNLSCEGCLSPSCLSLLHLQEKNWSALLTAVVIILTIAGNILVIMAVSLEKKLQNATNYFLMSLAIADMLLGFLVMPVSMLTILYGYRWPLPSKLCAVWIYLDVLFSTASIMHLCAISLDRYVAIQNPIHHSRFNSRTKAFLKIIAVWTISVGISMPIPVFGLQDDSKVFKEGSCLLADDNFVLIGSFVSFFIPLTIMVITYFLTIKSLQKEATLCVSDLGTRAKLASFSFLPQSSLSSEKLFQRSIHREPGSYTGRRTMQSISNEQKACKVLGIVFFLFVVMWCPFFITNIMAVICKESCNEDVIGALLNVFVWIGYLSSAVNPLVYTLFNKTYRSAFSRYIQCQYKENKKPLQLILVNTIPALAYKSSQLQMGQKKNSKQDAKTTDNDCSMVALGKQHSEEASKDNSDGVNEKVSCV
Description: Binding affinity for human cloned 5-hydroxytryptamine 2A receptor expressed in L929 cells using [125I]R91150 as radioligand

[5] = target: Serotonin 3 (5-HT3) receptor; test: Binding affinity for human cloned 5-hydroxytryptamine 3 receptor; assay type: protein-complex assay
[6] = target: T3, Alpha-2A adrenergic receptor (Homo sapiens, UniProt P08913); test: Binding affinity for human cloned Alpha-2A adrenergic receptor
T3 sequence (P08913 whole entry): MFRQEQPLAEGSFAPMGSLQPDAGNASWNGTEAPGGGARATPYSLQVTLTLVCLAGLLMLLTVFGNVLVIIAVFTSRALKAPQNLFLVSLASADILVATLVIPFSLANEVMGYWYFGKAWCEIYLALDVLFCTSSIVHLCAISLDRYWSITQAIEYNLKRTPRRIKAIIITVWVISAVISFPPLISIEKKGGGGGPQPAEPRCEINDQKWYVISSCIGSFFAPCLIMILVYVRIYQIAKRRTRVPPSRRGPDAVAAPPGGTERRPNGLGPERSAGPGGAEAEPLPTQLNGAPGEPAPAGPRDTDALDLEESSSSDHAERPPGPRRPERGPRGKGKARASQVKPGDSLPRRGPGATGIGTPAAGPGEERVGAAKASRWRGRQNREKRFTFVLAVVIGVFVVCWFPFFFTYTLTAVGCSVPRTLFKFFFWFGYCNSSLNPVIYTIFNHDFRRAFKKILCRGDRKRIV

[7] = target: T4, Alpha-1A adrenergic receptor (Homo sapiens, UniProt P35348); test: Binding affinity for human cloned Alpha-1A adrenergic receptor
T4 sequence (P35348 whole entry): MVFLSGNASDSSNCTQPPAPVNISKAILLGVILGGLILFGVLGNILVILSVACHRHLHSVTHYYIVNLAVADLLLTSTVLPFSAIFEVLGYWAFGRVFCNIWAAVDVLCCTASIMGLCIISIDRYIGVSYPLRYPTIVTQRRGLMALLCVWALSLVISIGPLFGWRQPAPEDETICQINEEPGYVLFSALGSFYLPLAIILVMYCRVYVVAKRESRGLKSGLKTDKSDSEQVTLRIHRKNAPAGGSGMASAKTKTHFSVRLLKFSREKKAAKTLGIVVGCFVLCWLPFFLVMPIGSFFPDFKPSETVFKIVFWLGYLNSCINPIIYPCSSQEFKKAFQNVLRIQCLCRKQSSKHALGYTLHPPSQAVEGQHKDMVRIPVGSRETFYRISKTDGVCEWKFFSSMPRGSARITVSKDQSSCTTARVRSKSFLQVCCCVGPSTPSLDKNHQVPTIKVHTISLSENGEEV

[8] = target: T5, Alpha-2C adrenergic receptor (Homo sapiens, UniProt P18825); test: Binding affinity for human cloned Alpha-2C adrenergic receptor
T5 sequence (P18825 whole entry): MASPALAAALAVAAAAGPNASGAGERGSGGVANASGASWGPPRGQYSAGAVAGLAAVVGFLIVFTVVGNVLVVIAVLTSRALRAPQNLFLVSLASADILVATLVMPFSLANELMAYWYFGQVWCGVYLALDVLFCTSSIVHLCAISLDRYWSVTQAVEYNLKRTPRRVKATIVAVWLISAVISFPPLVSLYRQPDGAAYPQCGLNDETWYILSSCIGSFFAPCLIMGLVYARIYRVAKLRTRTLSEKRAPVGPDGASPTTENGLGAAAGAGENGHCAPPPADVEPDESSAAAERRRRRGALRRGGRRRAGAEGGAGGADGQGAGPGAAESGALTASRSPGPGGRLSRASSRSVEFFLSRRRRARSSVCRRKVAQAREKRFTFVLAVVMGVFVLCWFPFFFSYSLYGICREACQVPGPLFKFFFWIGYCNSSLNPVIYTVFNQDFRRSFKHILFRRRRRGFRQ

D(3) dopamine receptor = D(3) dopamine receptor (Homo sapiens, UniProt P35462); test: Binding affinity for human cloned Dopamine receptor D3
Sequence of D(3) dopamine receptor (P35462 whole entry): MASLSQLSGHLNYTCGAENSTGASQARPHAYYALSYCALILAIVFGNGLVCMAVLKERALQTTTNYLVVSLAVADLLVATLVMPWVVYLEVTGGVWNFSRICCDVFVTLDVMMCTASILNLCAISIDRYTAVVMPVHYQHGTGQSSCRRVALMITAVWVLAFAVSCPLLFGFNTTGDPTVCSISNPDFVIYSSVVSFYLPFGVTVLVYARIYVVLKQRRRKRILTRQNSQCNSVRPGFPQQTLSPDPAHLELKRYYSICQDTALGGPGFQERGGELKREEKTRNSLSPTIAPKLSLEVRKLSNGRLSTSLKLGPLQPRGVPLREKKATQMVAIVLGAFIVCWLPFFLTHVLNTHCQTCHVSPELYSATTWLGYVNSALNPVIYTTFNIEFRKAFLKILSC

[9] = target: T6, 5-hydroxytryptamine receptor 2C (Rattus norvegicus) (UniProt P08909); test: In vivo activity in rat mCPP challenge test following p.o. administration.; assay type: functional, organism-based
T6 sequence (whole entry): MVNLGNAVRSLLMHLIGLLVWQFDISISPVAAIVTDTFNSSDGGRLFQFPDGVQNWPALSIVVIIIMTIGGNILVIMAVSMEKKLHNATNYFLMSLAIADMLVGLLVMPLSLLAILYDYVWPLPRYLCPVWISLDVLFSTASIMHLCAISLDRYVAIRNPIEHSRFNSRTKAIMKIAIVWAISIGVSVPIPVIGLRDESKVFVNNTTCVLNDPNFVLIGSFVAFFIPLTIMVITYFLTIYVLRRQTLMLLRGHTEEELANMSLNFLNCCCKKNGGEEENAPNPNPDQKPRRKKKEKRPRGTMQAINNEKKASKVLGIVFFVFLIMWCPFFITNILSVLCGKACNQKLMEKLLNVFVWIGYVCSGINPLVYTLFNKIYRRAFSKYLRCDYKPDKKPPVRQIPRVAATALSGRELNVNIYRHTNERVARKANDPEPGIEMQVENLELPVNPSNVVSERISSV

Rattus norvegicus = test: In vivo activity in mCPP challenge test were performed in male Wistar rats by subcutaneous administration; assay type: functional
[10] = target: 5-hydroxytryptamine receptor 7 (Homo sapiens, UniProt P34969); test: Binding affinity for human cloned 5-hydroxytryptamine 7 receptor
Sequence of 5-hydroxytryptamine receptor 7 (P34969 whole entry): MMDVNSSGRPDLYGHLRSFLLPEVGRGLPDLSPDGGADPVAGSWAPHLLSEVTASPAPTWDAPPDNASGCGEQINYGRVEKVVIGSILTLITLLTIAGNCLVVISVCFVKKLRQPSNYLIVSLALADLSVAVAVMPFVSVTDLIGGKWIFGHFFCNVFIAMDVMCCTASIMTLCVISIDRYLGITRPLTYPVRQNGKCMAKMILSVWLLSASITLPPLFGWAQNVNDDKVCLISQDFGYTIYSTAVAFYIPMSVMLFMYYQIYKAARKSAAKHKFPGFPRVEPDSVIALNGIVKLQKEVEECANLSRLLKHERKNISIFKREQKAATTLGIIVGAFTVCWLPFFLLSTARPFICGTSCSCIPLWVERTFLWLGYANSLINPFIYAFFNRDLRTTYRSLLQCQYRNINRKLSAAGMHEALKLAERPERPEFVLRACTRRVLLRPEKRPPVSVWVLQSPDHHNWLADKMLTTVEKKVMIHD

D(2) dopamine receptor [11] = target: D(2) dopamine receptor (Homo sapiens, UniProt P14416); test: Binding affinity for human cloned Dopamine receptor D2L
Sequence of D(2) dopamine receptor (Homo sapiens, UniProt P14416) (P14416 whole entry): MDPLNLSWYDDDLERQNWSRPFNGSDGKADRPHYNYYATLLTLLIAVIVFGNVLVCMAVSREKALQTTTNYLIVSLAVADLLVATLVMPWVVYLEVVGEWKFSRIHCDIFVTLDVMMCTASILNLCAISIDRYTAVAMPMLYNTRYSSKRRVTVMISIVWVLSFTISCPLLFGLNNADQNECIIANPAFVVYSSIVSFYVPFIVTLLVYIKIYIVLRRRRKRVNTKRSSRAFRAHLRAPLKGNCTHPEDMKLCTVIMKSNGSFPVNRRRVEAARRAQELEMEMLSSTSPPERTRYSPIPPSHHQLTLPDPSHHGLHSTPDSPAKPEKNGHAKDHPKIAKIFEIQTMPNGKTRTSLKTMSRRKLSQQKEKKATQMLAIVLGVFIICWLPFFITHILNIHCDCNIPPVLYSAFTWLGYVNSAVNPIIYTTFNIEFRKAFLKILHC

D(4) dopamine receptor = target: T7, D(4) dopamine receptor (Homo sapiens, UniProt P21917); test: Binding affinity for human cloned Dopamine receptor D4
T7 sequence (P21917 whole entry): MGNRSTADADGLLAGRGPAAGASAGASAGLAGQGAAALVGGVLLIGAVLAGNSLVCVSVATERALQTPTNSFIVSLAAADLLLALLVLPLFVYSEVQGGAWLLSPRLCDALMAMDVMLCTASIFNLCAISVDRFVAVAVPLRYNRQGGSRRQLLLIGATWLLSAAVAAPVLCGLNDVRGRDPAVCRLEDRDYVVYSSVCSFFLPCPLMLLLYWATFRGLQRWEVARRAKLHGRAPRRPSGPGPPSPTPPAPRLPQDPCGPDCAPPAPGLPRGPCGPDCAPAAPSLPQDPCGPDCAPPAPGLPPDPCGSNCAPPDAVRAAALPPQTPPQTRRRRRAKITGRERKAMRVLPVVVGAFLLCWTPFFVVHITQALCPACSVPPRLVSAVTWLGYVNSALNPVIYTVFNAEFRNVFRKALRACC

Histamine H1 receptor = Histamine H1 receptor (Homo sapiens, UniProt P35367); test: Binding affinity for human cloned Histamine H1 receptor expressed in CHO cells using [3H]pyrilamine as radioligand; assay type: cell-based
Sequence of Histamine H1 receptor (P35367 whole entry): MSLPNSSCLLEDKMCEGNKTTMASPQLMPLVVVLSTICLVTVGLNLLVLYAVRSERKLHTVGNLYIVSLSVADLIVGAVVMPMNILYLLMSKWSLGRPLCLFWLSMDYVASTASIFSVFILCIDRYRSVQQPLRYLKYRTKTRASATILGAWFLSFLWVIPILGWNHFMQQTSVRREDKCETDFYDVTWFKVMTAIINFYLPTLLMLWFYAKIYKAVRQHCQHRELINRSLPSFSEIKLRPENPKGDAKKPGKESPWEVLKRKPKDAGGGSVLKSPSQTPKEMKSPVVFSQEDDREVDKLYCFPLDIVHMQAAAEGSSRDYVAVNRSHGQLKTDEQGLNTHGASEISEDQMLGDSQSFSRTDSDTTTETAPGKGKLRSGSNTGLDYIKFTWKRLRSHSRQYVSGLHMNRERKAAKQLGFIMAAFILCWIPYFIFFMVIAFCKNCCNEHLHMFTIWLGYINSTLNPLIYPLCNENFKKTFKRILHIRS

D(2) dopamine receptor [12] = target: D(2) dopamine receptor (Rattus norvegicus, UniProt P61169); test: Binding affinity for rat Dopamine receptor D2
Sequence of D(2) dopamine receptor (Rattus norvegicus, UniProt P61169) (P61169 whole entry): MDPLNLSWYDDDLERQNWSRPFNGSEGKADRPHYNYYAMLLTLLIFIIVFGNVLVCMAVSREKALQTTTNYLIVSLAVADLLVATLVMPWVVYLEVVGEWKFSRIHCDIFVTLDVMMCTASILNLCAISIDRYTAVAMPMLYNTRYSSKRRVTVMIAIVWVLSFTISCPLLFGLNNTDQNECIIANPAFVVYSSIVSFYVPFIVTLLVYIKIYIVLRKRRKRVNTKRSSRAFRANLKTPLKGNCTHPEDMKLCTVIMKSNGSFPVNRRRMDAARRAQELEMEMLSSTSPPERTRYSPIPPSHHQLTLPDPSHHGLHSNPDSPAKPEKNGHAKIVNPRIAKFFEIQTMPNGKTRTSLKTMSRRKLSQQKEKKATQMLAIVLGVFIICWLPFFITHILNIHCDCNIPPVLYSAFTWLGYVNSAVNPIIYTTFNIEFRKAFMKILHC

[13] = Rattus norvegicus, sc, read-out: ED50

IC50 [1] [nM]	IC50 [2] [nM]	IC50 [3] [nM]	IC50 [4] [nM]	pIC50 [5]	IC50 [6] [nM]	IC50 [7] [nM]	IC50 [8] [nM]	IC50 (D(3) dopamine receptor) [nM]	ED50 [9] [mg/kg]	IC50 [10] [nM]	IC50 (D(2) dopamine receptor [11]) [nM]	IC50 (D(4) dopamine receptor) [nM]	IC50 (Histamine H1 receptor) [nM]	IC50 (D(2) dopamine receptor [12]) [nM]	Compound	ED50 (Rattus norvegicus; [13]) [mg/kg]	ED50 (Rattus norvegicus) [mg/kg]
> 1000	> 1000	7.08	13.2	< 6	437	191	> 1000	339	> 2.5	18.6	1700	302	10.7		CNCC1CC2c3ccccc3Cc3ccccc3N2O1 (configuration not stated)	0.16	
977	661	12.3	22.9	5.92	372	537	1860	170			871	132	6.76	195	CN(C)CC1CC2c3ccccc3Cc3ccccc3N2O1 (stereo in doubt; 2a)		0.04
> 1000	> 1000	37.2	91.2		> 1000	1910	> 1000	> 1000	2.5		9550		83.2	> 1000	CN(C)CCC1CC2c3ccccc3Cc3ccccc3N2O1 (configuration not stated)	2.5	

Compound	IC50 [1] [nM]	IC50 [2] [nM]	IC50 [3] [nM]	IC50 [4] [nM]	pIC50 [5]	IC50 [6] [nM]	IC50 [7] [nM]	IC50 [8] [nM]	IC50 (D(3) dopamine receptor) [nM]	ED50 [9] [mg/kg]	IC50 [10] [nM]	IC50 (D(2) dopamine receptor [11]) [nM]	IC50 (D(4) dopamine receptor) [nM]	IC50 (Histamine H1 receptor) [nM]	IC50 (D(2) dopamine receptor [12]) [nM]	ED50 (Rattus norvegicus; [13]) [mg/kg]	ED50 (Rattus norvegicus) [mg/kg]
CN1CCN2c3ccccc3Cc3ccccc3C2C1 (configuration not stated) [MIANSERIN]		380						42.7		2.5		7080				0.16	

From ChEMBL document CHEMBL1135380, “Synthesis and structure-activity relationship of 2-(aminoalkyl)-2,3,3a,8-tetrahydrodibenzo[c,f]isoxazolo[2,3-a]azepine derivatives: a novel series of 5-HT(2A/2C) receptor antagonists. Part 1” (Bioorg Med Chem Lett, 2002)
